Results reported in ChEMBL document CHEMBL4130424, “Synthesis and biological effect of chrom-4-one derivatives as functional inhibitors of heat shock protein 27” (2017).
Activity calls are given as the source filed them. The rule behind the calls is not given here.

Tests used:
[1] = biological target: Heat shock protein beta-1 (Homo sapiens) (UniProt P04792); assay: Induction of abnormal HSP27 dimerization in human NCI-H460 cells assessed as potentiation of 17-AAG-induced increase in cleaved caspase-7 levels at 10 uM after 24 hrs by Western blot analysis; assay type: cell-based
Sequence of Heat shock protein beta-1 (Homo sapiens) (P04792 whole entry): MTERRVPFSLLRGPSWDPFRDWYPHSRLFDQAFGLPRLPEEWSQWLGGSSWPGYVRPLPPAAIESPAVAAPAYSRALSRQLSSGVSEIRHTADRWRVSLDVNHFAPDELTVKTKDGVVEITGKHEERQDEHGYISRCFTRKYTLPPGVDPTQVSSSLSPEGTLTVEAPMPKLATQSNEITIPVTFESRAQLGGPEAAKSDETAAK

[2] = biological target: Heat shock protein beta-1 (Homo sapiens) (UniProt P04792); assay: Induction of abnormal HSP27 dimerization in human NCI-H460 cells assessed as potentiation of 17-AAG-induced increase in cleaved PARP levels at 10 uM after 24 hrs by Western blot analysis; assay type: cell-based
[3] = test system: NCI-H460; assay: Induction of apoptosis in human NCI-H460 cells assessed as early apoptotic cells at 10 uM after 24 hrs by Annexin V/propidium iodide double staining-based FACS analysis (reference value: 3.84%); assay type: functional
[4] = test system: NCI-H460; assay: Potentiation of 17-AAG-induced apoptosis in human NCI-H460 cells assessed as necrotic cells at 10 uM after 24 hrs by Annexin V/propidium iodide double staining-based FACS analysis (reference value: 1.42%); assay type: functional
[5] = test system: NCI-H460; assay: Potentiation of 17-AAG-induced apoptosis in human NCI-H460 cells assessed as early apoptotic cells at 10 uM after 24 hrs by Annexin V/propidium iodide double staining-based FACS analysis (reference value: 17.86%); assay type: functional
[6] = test system: NCI-H460; assay: Induction of apoptosis in human NCI-H460 cells assessed as necrotic cells at 10 uM after 24 hrs by Annexin V/propidium iodide double staining-based FACS analysis (reference value: 1.29%); assay type: functional
[7] = test system: NCI-H460; assay: Potentiation of cisplatin-induced apoptosis in human NCI-H460 cells assessed as late apoptotic cells at 10 uM after 24 hrs by Annexin V/propidium iodide double staining-based FACS analysis (reference value: 3.74%); assay type: functional
[8] = test system: NCI-H460; assay: Induction of apoptosis in human NCI-H460 cells assessed as late apoptotic cells at 10 uM after 24 hrs by Annexin V/propidium iodide double staining-based FACS analysis (reference value: 3.92%); assay type: functional
[9] = test system: NCI-H460; assay: Induction of apoptosis in human NCI-H460 cells assessed as late apoptotic cells at 10 uM after 24 hrs by Annexin V/propidium iodide double staining-based FACS analysis (reference value: 3.66%); assay type: functional
[10] = test system: NCI-H460; assay: Induction of apoptosis in human NCI-H460 cells assessed as necrotic cells at 10 uM after 24 hrs by Annexin V/propidium iodide double staining-based FACS analysis (reference value: 2.92%); assay type: functional
[11] = test system: NCI-H460; assay: Induction of apoptosis in human NCI-H460 cells assessed as early apoptotic cells at 10 uM after 24 hrs by Annexin V/propidium iodide double staining-based FACS analysis (reference value: 2.83%); assay type: functional
[12] = test system: NCI-H460; assay: Potentiation of cisplatin-induced apoptosis in human NCI-H460 cells assessed as necrotic cells at 10 uM after 24 hrs by Annexin V/propidium iodide double staining-based FACS analysis (reference value: 2.26%); assay type: functional
[13] = test system: NCI-H460; assay: Potentiation of 17-AAG-induced apoptosis in human NCI-H460 cells assessed as late apoptotic cells at 10 uM after 24 hrs by Annexin V/propidium iodide double staining-based FACS analysis (reference value: 7.53%); assay type: functional
[14] = test system: NCI-H460; assay: Potentiation of 17-AAG-induced antiproliferative activity in HSP27-knockdown human NCI-H460 cells at 10 uM after 24 hrs by EZ-CYTOX cell viability assay; assay type: functional, cell-based
[15] = test system: NCI-H460; assay: Potentiation of cisplatin-induced apoptosis in human NCI-H460 cells assessed as early apoptotic cells at 10 uM after 24 hrs by Annexin V/propidium iodide double staining-based FACS analysis (reference value: 7.49%); assay type: functional
[16] = biological target: Heat shock protein beta-1 (Homo sapiens) (UniProt P04792); assay: Induction of abnormal recombinant HSP27 (unknown origin) dimerization after 3 hrs by Western blot analysis
[17] = biological target: Heat shock protein beta-1 (Homo sapiens) (UniProt P04792); assay: Induction of abnormal HSP27 dimerization in human NCI-H460 cells assessed as potentiation of cisplatin-induced antiproliferative activity at 10 uM after 24 hrs by EZ-CYTOX cell viability assay; assay type: cell-based
[18] = biological target: Heat shock protein beta-1 (Homo sapiens) (UniProt P04792); assay: Induction of abnormal HSP27 dimerization in human NCI-H460 cells assessed as potentiation of cisplatin-induced increase in cleaved caspase-7 levels at 10 uM after 24 hrs by Western blot analysis; assay type: cell-based
[19] = biological target: Heat shock protein beta-1 (Homo sapiens) (UniProt P04792); assay: Induction of abnormal HSP27 dimerization in human NCI-H460 cells assessed as potentiation of 17-AAG-induced apoptosis by measuring early apoptotic cells at 10 uM after 24 hrs by Annexin V/propidium iodide double staining-based FACS analysis (reference value: 17.86%); assay type: cell-based
[20] = biological target: Heat shock protein beta-1 (Homo sapiens) (UniProt P04792); assay: Induction of abnormal HSP27 dimerization in human NCI-H460 cells assessed as potentiation of cisplatin-induced apoptosis by measuring late apoptotic cells at 10 uM after 24 hrs by Annexin V/propidium iodide double staining-based FACS analysis (reference value: 3.74%); assay type: cell-based
[21] = biological target: Heat shock protein beta-1 (Homo sapiens) (UniProt P04792); assay: Induction of abnormal HSP27 dimerization in human NCI-H460 cells assessed as potentiation of cisplatin-induced apoptosis by measuring necrotic cells at 10 uM after 24 hrs by Annexin V/propidium iodide double staining-based FACS analysis (reference value: 2.26%); assay type: cell-based
[22] = biological target: Heat shock protein beta-1 (Homo sapiens) (UniProt P04792); assay: Induction of abnormal HSP27 dimerization in human NCI-H460 cells assessed as potentiation of 17-AAG-induced antiproliferative activity at 10 uM after 24 hrs by EZ-CYTOX cell viability assay; assay type: cell-based
[23] = biological target: Heat shock protein beta-1 (Homo sapiens) (UniProt P04792); assay: Induction of abnormal HSP27 dimerization in human NCI-H460 cells assessed as potentiation of cisplatin-induced increase in cleaved PARP levels at 10 uM after 24 hrs by Western blot analysis; assay type: cell-based
[24] = biological target: Heat shock protein beta-1 (Homo sapiens) (UniProt P04792); assay: Induction of abnormal HSP27 dimerization in human NCI-H460 cells assessed as potentiation of 17-AAG-induced apoptosis by measuring necrotic cells at 10 uM after 24 hrs by Annexin V/propidium iodide double staining-based FACS analysis (reference value: 1.42%); assay type: cell-based
[25] = biological target: Heat shock protein beta-1 (Homo sapiens) (UniProt P04792); assay: Induction of abnormal HSP27 dimerization in human NCI-H460 cells assessed as potentiation of cisplatin-induced apoptosis by measuring early apoptotic cells at 10 uM after 24 hrs by Annexin V/propidium iodide double staining-based FACS analysis (reference value: 7.49%); assay type: cell-based
[26] = test system: NCI-H460; assay: Induction of apoptosis in human NCI-H460 cells assessed as increase in cleaved caspase-7 levels at 10 uM after 12 hrs by Western blot analysis; assay type: functional, cell-based
[27] = biological target: Heat shock protein beta-1 (Homo sapiens) (UniProt P04792); assay: Induction of abnormal HSP27 dimerization in human NCI-H460 cells at 10 uM after 12 hrs by Western blot analysis; assay type: cell-based
[28] = test system: NCI-H460; assay: Induction of apoptosis in human NCI-H460 cells assessed as increase in cleaved PARP levels at 10 uM after 12 hrs by Western blot analysis; assay type: functional, cell-based
[29] = biological target: Heat shock protein beta-1 (Homo sapiens) (UniProt P04792); assay: Induction of abnormal HSP27 dimerization in human NCI-H460 cells assessed as potentiation of 17-AAG-induced apoptosis by measuring late apoptotic cells at 10 uM after 24 hrs by Annexin V/propidium iodide double staining-based FACS analysis (reference value: 7.53%); assay type: cell-based
[30] = biological target: Heat shock protein beta-1 (Homo sapiens) (UniProt P04792); assay: Induction of abnormal HSP27 dimerization in human NCI-H460 cells at 10 uM co-treated with 17-AAG after 24 hrs by Western blot analysis; assay type: cell-based
[31] = test system: NCI-H460; assay: Potentiation of 17-AAG-induced antiproliferative activity against human NCI-H460 cells at 10 uM after 24 hrs by EZ-CYTOX cell viability assay; assay type: functional, cell-based

For `COc1cc(OCC2CS2)c2c(=O)c3ccccc3oc2c1` (configuration not stated), the Activity [1] was “inactive”, the Activity [2] was “inactive” and the Activity [3] was 3.42%. The Activity [4] was 0.68%, the Activity [5] was 6.62% and the Activity [6] was 0.6%. For the same compound, the Activity [7] was 4.81%, the Activity [8] was 4.27% and the Activity [9] was 4.04%. The Activity [10] was 3.6%, the Activity [11] was 3.41% and the Activity [12] was 2.45%. For the same compound, the Activity [13] was 6.65%, the Activity [14] was “inactive” and the Activity [15] was 7.29%. The Activity [16] was “inactive”.

In the case of `Cc1cc(=O)c2c(O)cc(OCC3CS3)cc2o1` (configuration not stated), the Activity [17] is reported as “Active”, the Activity [1] is reported as “Active” and the Activity [18] is reported as “Active”. The Activity [2] was “Active”, the Activity [3] was 3.47% and the Activity [19] was 18.6%. The Activity [20] was 4.52%, the Activity [21] was 2.11% and the Activity [6] was 1.97%. For the same compound, the Activity [22] was “Active”, the Activity [8] was 5.21% and the Activity [9] was 5.9%. The Activity [10] was 1.89%, the Activity [11] was 4.73% and the Activity [23] was “Active”. For the same compound, the Activity [24] was 3.87%, the Activity [25] was 9.47% and the Activity [26] was “Active”. For the same compound, the Activity [27] was “Active”, the Activity [28] was “Active” and the Activity [14] was “inactive”. The Activity [16] was “Active”, the Activity [29] was 16.5% and the Activity [30] was “Active”.

For `O=c1cc(-c2ccccc2)oc2cc(OCC3CO3)cc(O)c12` (configuration not stated), the Activity [16] was “inactive”.

`O=c1cc(-c2ccccc2)oc2cc(OCC3CO3)cc(OCC3CO3)c12` (configuration not stated) was tested, and the Activity [16] was “Active”.

In the case of `O=c1cc(-c2ccccc2)oc2cc(OCC3CS3)cc(OCC3CS3)c12` (configuration not stated), the Activity [1] is reported as “Active”, the Activity [31] is reported as “Active” and the Activity [2] is reported as “Active”. The Activity [3] was 9.85%, the Activity [4] was 10.12% and the Activity [5] was 10.78%. For the same compound, the Activity [6] was 11.71%, the Activity [9] was 27.48% and the Activity [13] was 31.53%. For the same compound, the Activity [26] was “Active”, the Activity [27] was “Active” and the Activity [28] was “Active”. For the same compound, the Activity [14] was “Active”, the Activity [16] was “Active” and the Activity [30] was “Active”.

In the case of `O=c1cc(-c2ccccc2)oc2cc(OCC3CS3)cc(O)c12` (configuration not stated), the Activity [16] is reported as “Active”.

`O=c1c2ccccc2oc2cc(OCC3CS3)cc(OCC3CS3)c12` (configuration not stated) was tested, and the Activity [1] was “Active”, the Activity [31] was “Active” and the Activity [2] was “Active”. For the same compound, the Activity [3] was 8.67%, the Activity [4] was 5.18% and the Activity [5] was 21.99%. For the same compound, the Activity [6] was 3.38%, the Activity [9] was 8.13% and the Activity [13] was 20.69%. For the same compound, the Activity [26] was “Active”, the Activity [27] was “Active” and the Activity [28] was “Active”. For the same compound, the Activity [14] was “Active”, the Activity [16] was “Active” and the Activity [30] was “Active”.

`Cc1cc(=O)c2c(OCC3CS3)cc(OCC3CS3)cc2o1` (configuration not stated) was tested, and the Activity [17] was “Active”, the Activity [1] was “Active” and the Activity [18] was “Active”. For the same compound, the Activity [2] was “Active”, the Activity [3] was 3.49% and the Activity [19] was 18%. It also gave an Activity [20] of 6.44%, an Activity [21] of 2.91% and an Activity [6] of 2.37%. For the same compound, the Activity [22] was “Active”, the Activity [8] was 3.53% and the Activity [9] was 4.5%. The Activity [10] was 2.67%, the Activity [11] was 6.25% and the Activity [23] was “Active”. The Activity [24] was 5.37%, the Activity [25] was 11.1% and the Activity [26] was “Active”. The Activity [27] was “Active”, the Activity [28] was “Active” and the Activity [14] was “inactive”. The Activity [16] was “Active”, the Activity [29] was 13% and the Activity [30] was “Active”.
